Measurements published in US20090291462A1, “Detection or Quantification of Aggrecan and its Fragments” (Immunodiagnostic Systems Nordic A/S, priority 2005, published 2009).

How the values were obtained:
Format in all cases: cell-based
[1] = test system: Bovine articular cartilage explants; assay: G2 release into supernatants of bovine articular cartilage explants (F78 sandwich assay); details: FIG. 5; for release of G2 on cytokine stimulation: OSM and TNF-α together, decreases after day 5, background after day 12
Method: A sandwich assay was developed using monoclonal antibodies as described above. Streptavidin plates were incubated for 1 hour, 300 RPM, 20° C. with 100 μl 600 ng/ml biotinylated F78 monoclonal antibody against the G2 domain of aggrecan.
After incubating the plates for 1 hour, plates were washed 5 times with washing buffer (0.15 mol/l NaCl, 0.05% (v/v) Tween 20). Subsequently 100 μl standards (purified bovine aggrecan 0.05 ng/ml-10 ng/ml, or pre-diluted explant supernatants in PBS-BTB were added, and the plates were incubated for 1 hour, 300 RPM, 20° C. After the incubation period, the plates were washed 5 times as described previously, and 500 ng/ml horseradish Peroxidase (POD)-labelled F78 antibody was added. After incubating for 1 hour, 300 RPM, 20° C., the plate was washed 5 times, and 100 μl of TMB substrate was added, and the plate was incubated for 15 minutes, 300 RPM, 20° C. in the dark before 150 μl 0.18 M H2SO4 was added. The absorbance was measured immediately at 450 nm.
(§1) The G2 and the ^342FFGVG-G2 test described above were evaluated using conditioned medium from cartilage explants. Bovine articular cartilage was obtained from heifer stifle joints. Pieces of cartilage (16±4 mg) were placed in 96 well plates and incubated at 37° C. with 5% CO2 and shaking (50 rpm). Serum-free D-MEM medium with or without the cytokines oncostatin M and tumour necrosis factor α (TNFα) or the MMP inhibitor GM6001 was used. As negative control, cartilage was placed in chryo-tubes, frozen in liquid N2, and thawed at 37° C. in water-bath for three repeated freeze-thaw cycles. The explants culture medium was replaced every 3rd day, and supernatants were stored at −20° C. until further analysis.

[2] = test system: Bovine articular cartilage explants; assay: ^342FFGVG-G2 release into supernatants of bovine articular cartilage explants (AF-28/F78 sandwich assay); details: FIG. 5; for release of ^342FFGVG-G2 on cytokine stimulation: OSM and TNF-α together, after day 12
Method: Streptavidin plates were incubated for 1 hour, 300 RPM, 20° C. with 100 μl 1500 ng/ml biotinylated AF-28 monoclonal antibody against the epitope ^342FFGVG-G2. Antibody dilutions were made in PBS-BTB buffer. After incubating the plates for 1 hour, plates were washed 5 times with washing buffer (0.15 mol/l NaCl, 0.05% (v/v) Tween 20). Subsequently 50 μl standards (MMP-13 digested purified porcine aggrecan 47-3000 ng/ml or pre-diluted explant supernatants in PBS-BTB were added, and the plates were incubated for 1 hour, 300 RPM, 20° C. After the incubation period, the plates were washed 5 times as described previously, and 500 ng/ml horseradish Peroxidase (POD)-labelled F78 antibody was added. After incubating for 1 hour, 300 RPM, 20° C., the plates were washed 5 times, 100 μl of TMB substrate was added, and the plates were incubated for 15 minutes, 300 RPM, 20° C. in the dark before 150 μl 0.18 M H2SO4 was added. The absorbance was measured immediately after at 450 nm.
as §1

[3] = test system: Bovine articular cartilage explants; assay: CS846 release into supernatants of bovine articular cartilage explants (IBEX CS846 competitive ELISA kit); details: FIG. 6; for release of CS846 on cytokine stimulation: OSM and TNFα together
Method: as §1
The supernatants evaluated above was also measured for CS846 (IBEX CS846 competitive ELISA kit).

Row | Molecule | release of G2 on addition of the MMP inhibitor ([1]; explants treated with OSM and TNF-α plus GM6001) | release of ^342FFGVG-G2 in the presence of the MMP inhibitor ([2]; explants treated with OSM and TNF-α concomitantly with GM6001) | CS846 release during inhibition of MMP activity ([3]; explants with GM6001) | release of G2 on cytokine stimulation [1] | release of ^342FFGVG-G2 on cytokine stimulation [2] | release of CS846 on cytokine stimulation [3]
1 | CNC(=O)[C@H](Cc1c[nH]c2ccccc12)NC(=O)[C@@H](CC(=O)NO)CC(C)C [GM6001] | did not inhibit | completely abrogated | strong, initial elevation | – | – | –
2 | tumour necrosis factor α [TNF-α] | – | – | – | initial elevation | stimulate an increase | do not stimulate release
3 | oncostatin M (protein, UniProt P13725 26-221, looked up, cytokine oncostatin M used to stimulate cartilage explants) Oncostatin-M: AAIGSCSKEYRVLLGQLQKQTDLMQDTSRLLDPYIRIQGLDVPKLREHCRERPGAFPSEETLRGLGRRGFLQTLNATLGCVLHRLADLEQRLPKAQDLERSGLNIEDLEKLQMARPNILGLRNNIYCMAQLLDNSDTAEPTKAGRGASQPPTPTPASDAFQRKLEGCRFLHGYHRFMHSVGRVFSKWGESPNRSRR | – | – | – | initial elevation | stimulate an increase | do not stimulate release
